# Source: ChEMBL document CHEMBL3046966, “Structure and Fungicidal Activities of 2-Methoxyimino-N-methyl-2-[2-(substituted pyridyloxymethyl)phenyl]acetamide Derivatives” (1998)
# Legend:
# Assay type in all cases: functional
# [1] = tested on: Pseudoperonospora cubensis; assay: Fungicidal activity against Pseudoperonospora cubensis assessed as cucumber downy mildew disease control at 2 ppm foliar application 24 hr after inoculation by curative manner
# Botrytis cinerea [2] = assay: Fungicidal activity against Botryotinia fuckeliana assessed as cucumber gray mold disease control at 7.8 ppm foliar application 24 hr before inoculation by preventive manner
# [3] = tested on: Blumeria graminis f. sp. tritici; assay: Fungicidal activity against Blumeria graminis f. sp. tritici assessed as wheat powdery mildew disease control at 2 ppm foliar application for 24 hr after inoculation by curative manner
# Pyricularia oryzae [4] = assay: Fungicidal activity against Magnaporthe oryzae assessed as rice blast disease control at 7.8 ppm foliar application for 24 hr before inoculation by preventive manner
# [5] = tested on: Blumeria graminis f. sp. tritici; assay: Fungicidal activity against Blumeria graminis f. sp. tritici assessed as wheat powdery mildew disease control at 2 ppm foliar application for 24 hr before inoculation by preventive manner
# Podosphaera fuliginea [6] = assay: Fungicidal activity against Podosphaera fuligineas assessed as cucumber […] mildew disease control at 2 ppm foliar application 24 hr before inoculation by preventive manner
# Podosphaera fuliginea [7] = assay: Fungicidal activity against Podosphaera fuligineas assessed as cucumber […] mildew disease control at 2 ppm foliar application 24 hr after inoculation by curative manner
# Botrytis cinerea [8] = assay: Fungicidal activity against Botryotinia fuckeliana assessed as cucumber gray mold disease control at 2 ppm foliar application 24 hr after inoculation by curative manner
# [9] = tested on: Pseudoperonospora cubensis; assay: Fungicidal activity against Pseudoperonospora cubensis assessed as cucumber downy mildew disease control at 7.8 ppm foliar application 24 hr after inoculation by preventive manner
# Pyricularia oryzae [10] = assay: Fungicidal activity against Magnaporthe oryzae assessed as rice blast disease control at 7.8 ppm foliar application for 24 hr after inoculation by curative manner
# Podosphaera fuliginea [11] = assay: Fungicidal activity against Podosphaera fuligineas assessed as cucumber […] mildew disease control at 7.8 ppm foliar application 24 hr before inoculation by preventive manner
# [12] = tested on: Pseudoperonospora cubensis; assay: Fungicidal activity against Pseudoperonospora cubensis assessed as cucumber downy mildew disease control at 31.3 ppm foliar application 24 hr after inoculation by curative manner
# [13] = tested on: Pseudoperonospora cubensis; assay: Fungicidal activity against Pseudoperonospora cubensis assessed as cucumber downy mildew disease control at 125 ppm foliar application 24 hr after inoculation by preventive manner
# Podosphaera fuliginea [14] = assay: Fungicidal activity against Podosphaera fuligineas assessed as cucumber […] mildew disease control at 31.3 ppm foliar application 24 hr after inoculation by curative manner
# Botrytis cinerea [15] = assay: Fungicidal activity against Botryotinia fuckeliana assessed as cucumber gray mold disease control at 31.3 ppm foliar application 24 hr before inoculation by preventive manner
# Pyricularia oryzae [16] = assay: Fungicidal activity against Magnaporthe oryzae assessed as rice blast disease control at 125 ppm foliar application for 24 hr after inoculation by curative manner
# Botrytis cinerea [17] = assay: Fungicidal activity against Botryotinia fuckeliana assessed as cucumber gray mold disease control at 31.3 ppm foliar application 24 hr after inoculation by curative manner
# Pyricularia oryzae [18] = assay: Fungicidal activity against Magnaporthe oryzae assessed as rice blast disease control at 125 ppm foliar application for 24 hr before inoculation by preventive manner
# [19] = tested on: Blumeria graminis f. sp. tritici; assay: Fungicidal activity against Blumeria graminis f. sp. tritici assessed as wheat powdery mildew disease control at 7.8 ppm foliar application for 24 hr before inoculation by preventive manner
# [20] = tested on: Blumeria graminis f. sp. tritici; assay: Fungicidal activity against Blumeria graminis f. sp. tritici assessed as wheat powdery mildew disease control at 31.3 ppm foliar application for 24 hr after inoculation by curative manner
# Pyricularia oryzae [21] = assay: Fungicidal activity against Magnaporthe oryzae assessed as rice blast disease control at 31.3 ppm foliar application for 24 hr before inoculation by preventive manner
# Pyricularia oryzae [22] = assay: Fungicidal activity against Magnaporthe oryzae assessed as rice blast disease control at 31.3 ppm foliar application for 24 hr after inoculation by curative manner
# Botrytis cinerea [23] = assay: Fungicidal activity against Botryotinia fuckeliana assessed as cucumber gray mold disease control at 125 ppm foliar application 24 hr after inoculation by curative manner
# Botrytis cinerea [24] = assay: Fungicidal activity against Botryotinia fuckeliana assessed as cucumber gray mold disease control at 125 ppm foliar application 24 hr before inoculation by preventive manner
# [25] = tested on: Pseudoperonospora cubensis; assay: Fungicidal activity against Pseudoperonospora cubensis assessed as cucumber downy mildew disease control at 7.8 ppm foliar application 24 hr after inoculation by curative manner
# Podosphaera fuliginea [26] = assay: Fungicidal activity against Podosphaera fuligineas assessed as cucumber […] mildew disease control at 7.8 ppm foliar application 24 hr after inoculation by curative manner
# Podosphaera fuliginea [27] = assay: Fungicidal activity against Podosphaera fuligineas assessed as cucumber […] mildew disease control at 31.3 ppm foliar application 24 hr before inoculation by preventive manner
# [28] = tested on: Blumeria graminis f. sp. tritici; assay: Fungicidal activity against Blumeria graminis f. sp. tritici assessed as wheat powdery mildew disease control at 125 ppm foliar application for 24 hr after inoculation by curative manner
# [29] = tested on: Pseudoperonospora cubensis; assay: Fungicidal activity against Pseudoperonospora cubensis assessed as cucumber downy mildew disease control at 125 ppm foliar application 24 hr after inoculation by curative manner
# [30] = tested on: Blumeria graminis f. sp. tritici; assay: Fungicidal activity against Blumeria graminis f. sp. tritici assessed as wheat powdery mildew disease control at 125 ppm foliar application for 24 hr before inoculation by preventive manner
# Botrytis cinerea [31] = assay: Fungicidal activity against Botryotinia fuckeliana assessed as cucumber gray mold disease control at 7.8 ppm foliar application 24 hr after inoculation by curative manner
# Podosphaera fuliginea [32] = assay: Fungicidal activity against Podosphaera fuligineas assessed as cucumber […] mildew disease control at 125 ppm foliar application 24 hr before inoculation by preventive manner
# Podosphaera fuliginea [33] = assay: Fungicidal activity against Podosphaera fuligineas assessed as cucumber […] mildew disease control at 125 ppm foliar application 24 hr after inoculation by curative manner
# [34] = tested on: Blumeria graminis f. sp. tritici; assay: Fungicidal activity against Blumeria graminis f. sp. tritici assessed as wheat powdery mildew disease control at 7.8 ppm foliar application for 24 hr after inoculation by curative manner
# [35] = tested on: Pseudoperonospora cubensis; assay: Fungicidal activity against Pseudoperonospora cubensis assessed as cucumber downy mildew disease control at 31.3 ppm foliar application 24 hr after inoculation by preventive manner
# [36] = tested on: Blumeria graminis f. sp. tritici; assay: Fungicidal activity against Blumeria graminis f. sp. tritici assessed as wheat powdery mildew disease control at 31.3 ppm foliar application for 24 hr before inoculation by preventive manner
# Pyricularia oryzae [37] = assay: Fungicidal activity against Magnaporthe oryzae assessed as rice blast disease control at 2 ppm foliar application for 24 hr after inoculation by curative manner
# Pyricularia oryzae [38] = assay: Fungicidal activity against Magnaporthe oryzae assessed as rice blast disease control at 2 ppm foliar application for 24 hr before inoculation by preventive manner
# [39] = tested on: Pseudoperonospora cubensis; assay: Fungicidal activity against Pseudoperonospora cubensis assessed as cucumber downy mildew disease control at 2 ppm foliar application 24 hr before inoculation by preventive manner
# Botrytis cinerea [40] = assay: Fungicidal activity against Botryotinia fuckeliana assessed as cucumber gray mold disease control at 2 ppm foliar application 24 hr before inoculation by preventive manner
Compound,Activity [1] [%],Activity (Botrytis cinerea [2]) [%],Activity [3] [%],Activity [5] [%],Activity (Podosphaera fuliginea [6]) [%],Activity (Podosphaera fuliginea [7]) [%],Activity (Podosphaera fuliginea [11]) [%],Activity [13] [%],Activity [19] [%],Activity (Pyricularia oryzae [21]) [%],Activity (Pyricularia oryzae [22]) [%],Activity (Botrytis cinerea [23]) [%],Activity (Botrytis cinerea [24]) [%],Activity [25] [%],other results
CNC(=O)/C(=N/OC)c1ccccc1COc1ncc(Cl)cc1C(F)(F)F,90,90,90,90,90,90,–,–,–,–,–,–,–,–,Activity (Pyricularia oryzae [4]): 90%; Activity (Botrytis cinerea [8]): 90%; Activity [9]: 90%; Activity (Pyricularia oryzae [10]): 90%
CNC(=O)/C(=N/OC)c1ccccc1COc1ccccn1,–,–,–,–,–,–,90,90,90,–,–,–,–,–,Activity [12]: 90%; Activity (Podosphaera fuliginea [14]): 90%; Activity (Botrytis cinerea [15]): 90%; Activity (Pyricularia oryzae [16]): <90%; Activity (Botrytis cinerea [17]): 90%; Activity (Pyricularia oryzae [18]): <90%; Activity [20]: 90%
CNC(=O)/C(=N/OC)c1ccccc1COc1nc(Cl)c(C(F)(F)F)cc1Cl,90,90,90,–,90,90,–,90,90,90,90,–,–,–,Activity (Botrytis cinerea [17]): 90%
CNC(=O)/C(=N/OC)c1ccccc1COc1nc(OC(C)C)ccc1C(F)(F)F,–,–,–,–,–,–,90,<90,90,90,90,<90,90,90,Activity (Podosphaera fuliginea [26]): 90%; Activity [20]: 90%
CNC(=O)/C(=N/OC)c1ccccc1COc1cccnc1Cl,–,90,–,–,–,–,–,–,–,–,–,–,–,–,Activity (Podosphaera fuliginea [27]): 90%; Activity [28]: <90%; Activity [29]: 90%; Activity (Podosphaera fuliginea [14]): 90%; Activity [30]: <90%; Activity (Botrytis cinerea [15]): 90%; Activity (Botrytis cinerea [31]): 90%; Activity (Pyricularia oryzae [18]): <90%
CNC(=O)/C(=N/OC)c1ccccc1COc1cccc(OC(C)C)n1,–,–,–,–,–,–,–,<90,–,90,90,<90,90,–,Activity (Podosphaera fuliginea [27]): 90%; Activity [12]: 90%; Activity [28]: 90%; Activity (Podosphaera fuliginea [14]): 90%; Activity [30]: 90%
CNC(=O)/C(=N/OC)c1ccccc1COc1cc(C(F)(F)F)ccn1,–,–,–,–,–,–,–,<90,–,90,90,<90,<90,90,Activity (Podosphaera fuliginea [32]): 90%; Activity [30]: 90%; Activity (Podosphaera fuliginea [33]): 90%; Activity [20]: 90%
CNC(=O)/C(=N/OC)c1ccccc1COc1cccc(Cl)n1,90,90,–,90,–,–,90,–,–,90,90,–,–,–,Activity [34]: 90%; Activity [35]: 90%; Activity (Botrytis cinerea [31]): 90%; Activity (Podosphaera fuliginea [26]): 90%
CNC(=O)/C(=N/OC)c1ccccc1COc1cccc(OC)n1,90,–,–,–,–,–,90,90,–,90,90,90,90,–,Activity [12]: 90%; Activity [34]: 90%; Activity [36]: 90%; Activity (Podosphaera fuliginea [26]): 90%
CNC(=O)/C(=N/OC)c1ccccc1COc1cccc(Br)n1,–,–,–,90,–,–,–,90,–,90,–,–,–,90,Activity (Podosphaera fuliginea [27]): 90%; Activity (Botrytis cinerea [15]): 90%; Activity (Botrytis cinerea [31]): 90%; Activity (Podosphaera fuliginea [26]): 90%; Activity (Pyricularia oryzae [10]): 90%; Activity [20]: 90%
CNC(=O)/C(=N/OC)c1ccccc1COc1ncccc1C(F)(F)F,–,90,90,90,–,90,90,–,–,–,–,–,–,–,Activity [12]: 90%; Activity (Pyricularia oryzae [37]): 90%; Activity [35]: 90%; Activity (Botrytis cinerea [8]): 90%; Activity (Pyricularia oryzae [38]): 90%
CNC(=O)/C(=N/OC)c1ccccc1COc1nc(OC)ccc1C(F)(F)F,–,–,–,–,90,90,–,90,–,–,–,<90,–,90,Activity [28]: 90%; Activity (Botrytis cinerea [15]): 90%; Activity (Pyricularia oryzae [16]): 90%; Activity (Pyricularia oryzae [18]): 90%; Activity [36]: 90%
CNC(=O)/C(=N/OC)c1ccccc1COc1ncc(Cl)cc1Cl,90,–,–,–,90,90,–,–,90,–,90,–,–,–,Activity (Pyricularia oryzae [4]): 90%; Activity [34]: 90%; Activity (Botrytis cinerea [15]): 90%; Activity (Botrytis cinerea [17]): 90%; Activity [39]: 90%
CNC(=O)/C(=N\OC)c1ccccc1COc1cccc(C(F)(F)F)n1,–,–,–,–,–,–,–,90,–,90,90,<90,90,90,Activity (Podosphaera fuliginea [32]): 90%; Activity (Podosphaera fuliginea [14]): 90%; Activity [36]: 90%; Activity [20]: 90%
CNC(=O)/C(=N/OC)c1ccccc1COc1ccc(Cl)cn1,–,–,90,–,–,–,–,–,90,–,90,–,–,90,Activity (Podosphaera fuliginea [27]): 90%; Activity (Podosphaera fuliginea [14]): 90%; Activity [35]: 90%; Activity (Botrytis cinerea [8]): 90%; Activity (Pyricularia oryzae [18]): 90%; Activity (Botrytis cinerea [40]): 90%
CNC(=O)/C(=N/OC)c1ccccc1COc1ccc(C(F)(F)F)c(OC(C)C)n1,–,–,–,–,–,–,90,<90,–,–,–,<90,<90,–,Activity [12]: 90%; Activity [28]: 90%; Activity (Pyricularia oryzae [16]): 90%; Activity (Pyricularia oryzae [18]): 90%; Activity [36]: 90%; Activity (Podosphaera fuliginea [26]): 90%
CNC(=O)/C(=N/OC)c1ccccc1COc1ccc(C(F)(F)F)c(Cl)n1,90,90,–,–,–,90,–,–,90,–,–,–,–,–,Activity (Podosphaera fuliginea [27]): 90%; Activity (Pyricularia oryzae [4]): 90%; Activity [34]: 90%; Activity [35]: 90%; Activity (Botrytis cinerea [31]): 90%; Activity (Pyricularia oryzae [10]): 90%
CNC(=O)/C(=N/OC)c1ccccc1COc1nc(Cl)ccc1C(F)(F)F,90,90,90,90,90,90,–,–,–,–,–,–,–,–,Activity (Pyricularia oryzae [4]): 90%; Activity [39]: 90%; Activity (Botrytis cinerea [31]): 90%; Activity (Pyricularia oryzae [10]): 90%
CNC(=O)/C(=N/OC)c1ccccc1COc1ncc(C(F)(F)F)cc1Cl,90,–,90,90,90,90,–,–,–,–,–,–,–,–,Activity (Pyricularia oryzae [4]): 90%; Activity (Botrytis cinerea [8]): 90%; Activity [9]: 90%; Activity (Pyricularia oryzae [10]): 90%; Activity (Botrytis cinerea [40]): 90%
